21 molecules from patent publication US5032614A, “Serotonin antagonist” (Mitsubishi Kasei Corporation, priority 1989, dated 1991) can be followed below.

T1 sequence (P14842 whole entry): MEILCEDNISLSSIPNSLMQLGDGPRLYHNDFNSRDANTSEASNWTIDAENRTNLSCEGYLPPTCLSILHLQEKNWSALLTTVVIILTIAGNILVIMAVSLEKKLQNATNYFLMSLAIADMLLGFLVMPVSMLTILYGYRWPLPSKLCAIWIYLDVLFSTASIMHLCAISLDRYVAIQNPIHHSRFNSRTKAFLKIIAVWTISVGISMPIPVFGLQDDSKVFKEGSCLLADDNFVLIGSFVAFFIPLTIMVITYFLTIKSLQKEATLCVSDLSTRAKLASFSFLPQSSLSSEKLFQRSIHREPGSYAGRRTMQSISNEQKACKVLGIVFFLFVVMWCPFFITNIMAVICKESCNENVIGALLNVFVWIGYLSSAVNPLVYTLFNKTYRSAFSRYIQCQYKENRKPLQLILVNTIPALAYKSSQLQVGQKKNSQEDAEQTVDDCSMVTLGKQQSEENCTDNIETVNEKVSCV
T2 sequence (P14842 whole entry): as above

The first test concerns the target T1, serotonin receptor (3H-Ketanserin binding, cerebral cortex nucleus-microsome-containing fraction) (Rattus norvegicus, UniProt P14842).
T1 construct: the resultant nucleus-microsome-containing fraction (=receptor) was stored at -80° C; from tissue; host or cells: Wistar rat (male) cerebral cortex, nucleus-microsome-containing fraction
As to the kind of experiment: Receptor-binding test (3H-Ketanserin tracer, rat cerebral cortex receptor fraction). The settings on record: 3H-Ketanserin 1 nM, Wistar rat cerebral cortex receptor, 37° C. 30 min; read-out: IC50 (50% inhibition of specific binding of the tracer to the receptor). Here is the method: (1) Receptor-binding Test
(a) Preparation of Receptor
Wistar strain male rats (300-500 g) were killed by decapitation. Cerebral cortex was removed, homogenized in 50 mM Tris-HCl buffer, pH 7.4, and centrifuged at 50,000×g for 20 min at 4° C. After washing precipitates with the same buffer, the resultant nucleus-microsome-containing fraction (=receptor) was stored at -80° C. until use.
The receptor obtained above (0.5 ml, equivalent to 5 mg of tissue) was incubated at 37° C. for 30 min in 0.4 ml of the above-mentioned buffer containing 0.1 ml of ^3 H-Ketanserin tracer (77 Ci/mmol; a final concentration of 1 nM) in the final volume of 1.0 ml. The reaction mixture was filtered under vacuum through a GF/B glass filter (Whatman). After washing the filter with the buffer, radio activity bound to filter was measured by a liquid scintilation spectrophotometer (Aloka, LSC-900) to obtain the total binding activity of the tracer.
Non-specific binding activity of the tracer, i.e., the binding activity of the tracer to materials other than the receptor, was evaluated using the same assay system except for that serotonin was added to the reaction mixture to the final concentration of 1 mM in order to block the binding of the tracer to the receptor. The specific binding activity of the tracer to the receptor was determined by subtracting the non-specific binding activity from the total binding activity.
(c) IC50 (concentration of a test compound requisite for producing a 50% inhibition)
Concentration (ng/ml) of compounds of the invention (serotonin antagonist) which produces a 50% inhibition of specific binding of the tracer to the receptor was determined as follows.
The assay system and procedure as described in (b) were employed except for that amitriphtyline hydrochloride as a control or a compound of the invention was added to the assay system with various concentrations of from 10^-1 to 10^-5 ng/ml. The specific binding activity was determined at each concentration, and a dose-response curve was prepared. A concentration of the compound in ng/ml required for producing 50% inhibition of specific binding of the tracer to the receptor (IC50) was determined on the basis of the dose-response curve.
The IC50 is the concentration that gives 50% inhibition. Take `CN(C)CCCCCCOc1ccccc1CCc1ccccc1` [compound 5]: the half-inhibitory concentration (IC50) was found to be 152 nM. The same measure, in the same setting: to `CNCCCCOc1ccccc1CCc1ccccc1` [compound 6] belongs 156 nM; to `CN(C)CCOc1ccccc1CCc1ccccc1` [Compound No. 1], 96.2 nM.

As to `CN(C)CCCOc1ccccc1CCc1ccccc1` [Compound No. 2], the IC50 was 33.8 nM. On the same count and under the same terms, to `CN(C)CCCCCOc1ccccc1CCc1ccccc1` [compound 4] belongs 377 nM; to `CN(C)CCCCOc1ccccc1CCc1ccccc1` [compound 3], 115 nM.

Another test has as its target T2, serotonin-induced constriction of caudal artery (Rattus norvegicus, UniProt P14842).
T2 construct: Caudal artery was removed and spiral strip was prepared; from tissue; host or cells: Wistar rat (male) caudal artery, spiral strip
As to the kind of experiment: Inhibition test against serotonin-induced constriction of caudal artery in rats. Type of test: cell-based. The settings on record: Wistar rat caudal artery spiral strip, from shift of serotonin ED50; read-out: Ki (inhibition constant against serotonin-induced constriction). Here is the method:
(2) Inhibition Test against Serotonin-induced Constriction of Caudal Artery in Rats Wistar strain male rats (300-500 g) were sacrificed by striking the animals at the occiput. Caudal artery was removed and spiral strip was prepared according to the procedure of J. M. van Nueten, The Journal of Pharmacology and Experimental Therapeutics 218(1): 217-230 (1981).
The spirit strip was ligated at both ends with cotton thread and placed in a magunus tube containing 10 ml of Krebs-Henselite solution (37° C., bubbled with a mixture of 95% O2 and 5% CO2). One end of the thread was connected to Isometric Transducer (Nihon Koden-kogyo Kikai). Isometric contraction was measured using Isometric Amplifier (Nihon Koden-kogyo Kikai) under a tension of 0.5 g.
The control contruction by cumulatively added serotonin(final concentration: 10^-9 --10^-5 M) was measured and then the control ED50 value of serotonin was determined. Subsequently, the strip was washed three times with Krebs-Henselite solution and a compound of the invention was added at a suitable concentration (final concentration: 10^-8, 10^-7, 10^-6, or 10^-5 M). Two minutes later, serotonin was cumulatively added at concentrations from 10^-9 to 10^-5 or 10^-3 M, and the ED50 value in the test group was determined.
ED50 values were calculated by "Probit Analysis". In Probit Analysis, an intercept, slope and spontaneous (threshold) reaction ratio of the curve obtained by biological analysis can be calculated according to the following "Probit equation" with highest reliability: [formula] .PHI.: the cumulative distributing relationships of standard normal distribution. […]
x: average dose (concentration of serotonin) y: probability of reaction (contractility rate of vascular smooth muscle) a, b, c: parameter; a, b>0, 1>c>0.
Inhibition constant (Ki) for each compound was determined according to the following equation: [formula]
Usually Ki stands for the dissociation constant of the complex between target and ligand, obtained from inhibition or displacement. As to `CN(C)CC(O)COc1ccccc1CCc1ccccc1` (stereo not drawn) [compound 18], the inhibition constant Ki stood at 13.9 nM.

On to `COc1cccc(CCc2ccccc2OCC(O)CN(C)C)c1` (stereo not drawn) [compound 15], for which the Ki turned out to be 1.16 nM.

With `NCCCCOc1ccccc1CCc1ccccc1` [compound 7], the Ki was 280 nM. On the same count and under the same terms, to `O=C(O)C1CCN(CCCCOc2ccccc2CCc2ccccc2)CC1` [compound 9] belongs 198 nM. Same read-out and setting: to `CN(C)CCCCOc1ccccc1CCc1cccc(Cl)c1` [compound 19] belongs 13.5 nM. With `CN(C)CCCCOc1ccc(CCc2ccccc2)cc1` [compound 11], the Ki came to 416 nM. On the same count and under the same terms, the result for `COc1cccc(CCc2ccccc2OCC(CN(C)C)OC(=O)CCC(=O)O)c1` (stereo not drawn) [compound 14] reads 17.8 nM. Regarding `CN(C)CCCCCCOc1ccccc1CCc1ccccc1` [compound 5], the Ki worked out at 74.9 nM. Same read-out and setting: to `COc1cccc(CCc2ccccc2OCC(CN(C)C)OCCC(=O)O)c1` (stereo not drawn) [compound 16] belongs 1.05 nM; to `CN(C)CCCCOc1ccc(Cl)cc1CCc1ccccc1` [compound 20], 25.7 nM; to `CNCCCCOc1ccccc1CCc1ccccc1` [compound 6], 70.6 nM.

With `CN(C)CCOc1ccccc1CCc1ccccc1` [Compound No. 1], the Ki came to 6.33 nM. Same read-out and setting: the result for `COc1cccc(CCc2ccccc2)c1OCCCCN(C)C` [compound 21] reads 85.7 nM; that for `CN(C)CC(COc1ccccc1CCc1cccc(F)c1)OC(=O)CCC(=O)O` (stereo not drawn) [compound 17], 41.3 nM; that for `CN(C)CCCOc1ccccc1CCc1ccccc1` [Compound No. 2], 4.55 nM. In the case of `CN(C)CCCCOc1cccc(CCc2ccccc2)c1` [compound 10], the Ki turned out to be 517 nM.

In the case of `c1ccc(CCc2ccccc2OCCCCN2CCCCC2)cc1` [compound 8], the inhibition constant (Ki) is 67.6 nM. With `CN(C)CCCOc1ccccc1CCc1ccc(N(C)C)cc1` [compound 13], the Ki was 23.3 nM. On the same count and under the same terms, to `CN(C)CCCCCOc1ccccc1CCc1ccccc1` [compound 4] belongs 37.6 nM. As to `CN(C)CCCCOc1ccccc1CCc1ccccc1` [compound 3], the Ki worked out at 9.78 nM. The same measure, in the same setting: to `COc1cccc(CCc2ccccc2OCCCCN(C)C)c1` [compound 12] belongs 13.1 nM.
